Like-named read-outs stand apart in the source and are kept apart here.
Tests used:
HLA-A*24:02 = HLA-A*24:02 (Homo sapiens, UniProt P04439, D101N/D140Y/D185E/E176V/E190D/F33S/G103R/G107R/I119L/I121M/I306V/K335N/L105A/L180Q/L300P/N151K/N90K/Q86E/Q94H/R106L/R138H/R89G/T104I/T345S/V100E/W191G/Y123F); experiment: HLA stabilization assay using RMA-S-A2402 cells; format: binding; conditions: RMA-S-A2402 cells
[1] = tested on: HLA-A*24:02-restricted CD8+ T cells; format: cell-based, human; conditions: for IFN-γ-producing cells among CD8+ T cells (Fig. 1f): bulk T cells
[2] = 14 vaccinated individuals, second time point 11–22 weeks after the first point of analysis

VYSSANNCTF [S-VYF10]
MFI, HLA-A2402 (APC), representative staining (HLA-A*24:02; Suppl. Fig. 3b (for Fig. 4a, 4b), peptide(-) 14.8, 26 °C (Maximum) 32.7): 26.9 | MFI, HLA-A2402 (APC), representative staining (HLA-A*24:02; Suppl. Fig. 3c (for Fig. 4c), peptide(-) 11.7, 26 °C (Maximum) 28.9): 32.7 | number of individuals with specific T cells at both time points [1, 2]: two | number of individuals with specific T cells at only the first time point [1, 2]: one | IFNg-producing cells among CD8 T cells (%) ([1]; Fig.6a, donor U-32, 1.430 weeks since 2nd dose of vaccination): 0.080% | IFNg-producing cells among CD8 T cells (%) ([1]; Fig.6a, donor U-32, 15.290 weeks since 2nd dose of vaccination): 0.000% | IFNg-producing cells among CD8 T cells (%) ([1]; Fig.6a, donor V1, 19.000 weeks since 2nd dose of vaccination): 0.000% | IFNg-producing cells among CD8 T cells (%) ([1]; Fig.6a, donor V1, 31.710 weeks since 2nd dose of vaccination): 0.710% | IFNg-producing cells among CD8 T cells (%) ([1]; Fig.6a, donor V2, 9.570 weeks since 2nd dose of vaccination): 0.330% | IFNg-producing cells among CD8 T cells (%) ([1]; Fig.6a, donor V2, 31.570 weeks since 2nd dose of vaccination): 0.000% | IFNg-producing cells among CD8 T cells (%) ([1]; Fig.6a, donor V5, 10.570 weeks since 2nd dose of vaccination): 0.000% | IFNg-producing cells among CD8 T cells (%) ([1]; Fig.6a, donor V5, 31.710 weeks since 2nd dose of vaccination): 1.030% | IFNg-producing cells among CD8 T cells (%) ([1]; Fig.6a, donor V6, 9.570 weeks since 2nd dose of vaccination): 0.590% | IFNg-producing cells among CD8 T cells (%) ([1]; Fig.6a, donor V6, 31.000 weeks since 2nd dose of vaccination): 0.930% | IFNg-producing cells among CD8 T cells (%) ([1]; Fig.6a, donor V7, 10.140 weeks since 2nd dose of vaccination): 0.000% | IFNg-producing cells among CD8 T cells (%) ([1]; Fig.6a, donor V7, 31.140 weeks since 2nd dose of vaccination): 0.470% | IFNg-producing cells among CD8 T cells (%) ([1]; Fig.6a, donor V8, 9.860 weeks since 2nd dose of vaccination): 0.000% | IFNg-producing cells among CD8 T cells (%) ([1]; Fig.6a, donor V8, 30.140 weeks since 2nd dose of vaccination): 0.160% | IFNg-producing cells among CD8 T cells (%) ([1]; Fig.6a, donor V9, 20.570 weeks since 2nd dose of vaccination): 0.000% | IFNg-producing cells among CD8 T cells (%) ([1]; Fig.6a, donor V9, 31.570 weeks since 2nd dose of vaccination): 0.930% | IFNg-producing cells among CD8 T cells (%) ([1]; Fig.6a, donor V12, 1.000 weeks since 2nd dose of vaccination): 0.000% | IFNg-producing cells among CD8 T cells (%) ([1]; Fig.6a, donor V12, 9.290 weeks since 2nd dose of vaccination): 0.000% | IFNg-producing cells among CD8 T cells (%) ([1]; Fig.6a, donor V13, 9.000 weeks since 2nd dose of vaccination): 2.650% | IFNg-producing cells among CD8 T cells (%) ([1]; Fig.6a, donor V13, 30.290 weeks since 2nd dose of vaccination): 3.770% | IFNg-producing cells among CD8 T cells (%) ([1]; Fig.6a, donor V14, 2.000 weeks since 2nd dose of vaccination): 1.600% | IFNg-producing cells among CD8 T cells (%) ([1]; Fig.6a, donor V14, 17.000 weeks since 2nd dose of vaccination): 1.540% | IFNg-producing cells among CD8 T cells (%) ([1]; Fig.6a, donor V15, 6.860 weeks since 2nd dose of vaccination): 0.000% | IFNg-producing cells among CD8 T cells (%) ([1]; Fig.6a, donor V15, 25.860 weeks since 2nd dose of vaccination): 0.380% | IFNg-producing cells among CD8 T cells (%) ([1]; Fig.6a, donor V16, 8.860 weeks since 2nd dose of vaccination): 1.180% | IFNg-producing cells among CD8 T cells (%) ([1]; Fig.6a, donor V16, 22.710 weeks since 2nd dose of vaccination): 0.000% | IFNg-producing cells among CD8 T cells (%) ([1]; Fig.6a, donor V17, 4.140 weeks since 2nd dose of vaccination): 0.000% | IFNg-producing cells among CD8 T cells (%) ([1]; Fig.6a, donor V17, 18.000 weeks since 2nd dose of vaccination): 0.000% | IFNg-producing cells among CD8 T cells (%) ([1]; convalescent donor C2, 45.290 weeks since PCR-confirmed diagnosis, […], peptide-pulsed C1R-A2402): 1.019% | IFNg-producing cells among CD8 T cells (%) ([1]; convalescent donor C3, 2.430 weeks since PCR-confirmed diagnosis, […], peptide-pulsed C1R-A2402): 0.261% | IFNg-producing cells among CD8 T cells (%) ([1]; convalescent donor C4, 35.000 weeks since PCR-confirmed diagnosis, […], peptide-pulsed C1R-A2402): 0.317% | IFNg-producing cells among CD8 T cells (%) ([1]; convalescent donor C5, 41.430 weeks since PCR-confirmed diagnosis, […], peptide-pulsed C1R-A2402): 0.327% | IFNg-producing cells among CD8 T cells (%) ([1]; convalescent donor C6, 20.000 weeks since PCR-confirmed diagnosis, […], peptide-pulsed C1R-A2402): 1.170% | IFNg-producing cells among CD8 T cells (%) ([1]; convalescent donor C7, 21.710 weeks since PCR-confirmed diagnosis, […], peptide-pulsed C1R-A2402): 0.230% | IFNg-producing cells among CD8 T cells (%) ([1]; convalescent donor C8, 47.860 weeks since PCR-confirmed diagnosis, […], peptide-pulsed C1R-A2402): 0.410% | IFNg-producing cells among CD8 T cells (%) ([1]; convalescent donor C9, 21.860 weeks since PCR-confirmed diagnosis, […], peptide-pulsed C1R-A2402): 0.000% | IFNg-producing cells among CD8 T cells (%) ([1]; convalescent donor C10, 24.570 weeks since PCR-confirmed diagnosis, […], peptide-pulsed C1R-A2402): 1.220% | IFNg-producing cells among CD8 T cells (%) ([1]; convalescent donor C11, 24.290 weeks since PCR-confirmed diagnosis, […], peptide-pulsed C1R-A2402): 0.000% | IFN-γ-producing cells among CD8+ T cells (Fig. 1f) ([1]; donor V10, 0 weeks since 1st dose of vaccination, C1R-A2402 pre-pulsed with 1 μM peptide): 1.450% | IFN-γ-producing cells among CD8+ T cells (Fig. 1f) ([1]; donor V10, 3 weeks since 1st dose of vaccination, C1R-A2402 pre-pulsed with 1 μM peptide): 0.420% | IFN-γ-producing cells among CD8+ T cells (Fig. 1f) ([1]; donor V10, 5 weeks since 1st dose of vaccination, C1R-A2402 pre-pulsed with 1 μM peptide): 0.290% | IFN-γ-producing cells among CD8+ T cells (Fig. 1f) ([1]; donor V10, 7 weeks since 1st dose of vaccination, C1R-A2402 pre-pulsed with 1 μM peptide): 0.000% | IFN-γ-producing cells among CD8+ T cells (Fig. 1f) ([1]; donor V12, 0 weeks since 1st dose of vaccination, C1R-A2402 pre-pulsed with 1 μM peptide): 0.310% | IFN-γ-producing cells among CD8+ T cells (Fig. 1f) ([1]; donor V12, 3 weeks since 1st dose of vaccination, C1R-A2402 pre-pulsed with 1 μM peptide): 0.000% | IFN-γ-producing cells among CD8+ T cells (Fig. 1f) ([1]; donor V12, 5 weeks since 1st dose of vaccination, C1R-A2402 pre-pulsed with 1 μM peptide): 0.540% | IFN-γ-producing cells among CD8+ T cells (Fig. 1f) ([1]; donor V12, 7 weeks since 1st dose of vaccination, C1R-A2402 pre-pulsed with 1 μM peptide): 0.000% | IFN-γ-producing cells among CD8+ T cells (Fig. 1f) ([1]; donor V14, 0 weeks since 1st dose of vaccination, C1R-A2402 pre-pulsed with 1 μM peptide): 0.000% | IFN-γ-producing cells among CD8+ T cells (Fig. 1f) ([1]; donor V14, 2 weeks since 1st dose of vaccination, C1R-A2402 pre-pulsed with 1 μM peptide): 0.000% | IFN-γ-producing cells among CD8+ T cells (Fig. 1f) ([1]; donor V14, 5 weeks since 1st dose of vaccination, C1R-A2402 pre-pulsed with 1 μM peptide): 1.580% | IFN-γ-producing cells among CD8+ T cells (Fig. 1f) ([1]; donor V14, 7 weeks since 1st dose of vaccination, C1R-A2402 pre-pulsed with 1 μM peptide): 0.000% | number of individuals with specific T cells after the second vaccine dose ([1]; longitudinal analysis of 3 vaccinated individuals): one | Freq of responder (%) ([1]; of 17 vaccinated HLA-A*24:02+ individuals (Fig. 4b)): 23.5% | IFNg-producing cells among CD8 T cells (%) ([1]; vaccinated donor V1, 19.000 weeks since 2nd dose, […], C1R-A2402 pre-pulsed with 1 μM peptide): 0% | IFNg-producing cells among CD8 T cells (%) ([1]; vaccinated donor V2, 9.570 weeks since 2nd dose, […], C1R-A2402 pre-pulsed with 1 μM peptide): 0.331% | IFNg-producing cells among CD8 T cells (%) ([1]; vaccinated donor V3, 8.860 weeks since 2nd dose, […], C1R-A2402 pre-pulsed with 1 μM peptide): 0.073% | IFNg-producing cells among CD8 T cells (%) ([1]; vaccinated donor V4, 10.430 weeks since 2nd dose, […], C1R-A2402 pre-pulsed with 1 μM peptide): 2.41% | IFNg-producing cells among CD8 T cells (%) ([1]; vaccinated donor V5, 10.570 weeks since 2nd dose, […], C1R-A2402 pre-pulsed with 1 μM peptide): 0% | IFNg-producing cells among CD8 T cells (%) ([1]; vaccinated donor V6, 9.570 weeks since 2nd dose, […], C1R-A2402 pre-pulsed with 1 μM peptide): 0.593% | IFNg-producing cells among CD8 T cells (%) ([1]; vaccinated donor V7, 10.140 weeks since 2nd dose, […], C1R-A2402 pre-pulsed with 1 μM peptide): 0% | IFNg-producing cells among CD8 T cells (%) ([1]; vaccinated donor V8, 9.860 weeks since 2nd dose, […], C1R-A2402 pre-pulsed with 1 μM peptide): 0% | IFNg-producing cells among CD8 T cells (%) ([1]; vaccinated donor V9, 20.570 weeks since 2nd dose, […], C1R-A2402 pre-pulsed with 1 μM peptide): 0% | IFNg-producing cells among CD8 T cells (%) ([1]; vaccinated donor V10, 2.000 weeks since 2nd dose, […], C1R-A2402 pre-pulsed with 1 μM peptide): 0.3% | IFNg-producing cells among CD8 T cells (%) ([1]; vaccinated donor V11, 1.430 weeks since 2nd dose, […], C1R-A2402 pre-pulsed with 1 μM peptide): 0.076% | IFNg-producing cells among CD8 T cells (%) ([1]; vaccinated donor V12, 1.000 weeks since 2nd dose, […], C1R-A2402 pre-pulsed with 1 μM peptide): 0% | IFNg-producing cells among CD8 T cells (%) ([1]; vaccinated donor V13, 9.000 weeks since 2nd dose, […], C1R-A2402 pre-pulsed with 1 μM peptide): 2.649% | IFNg-producing cells among CD8 T cells (%) ([1]; vaccinated donor V14, 2.000 weeks since 2nd dose, […], C1R-A2402 pre-pulsed with 1 μM peptide): 1.601% | IFNg-producing cells among CD8 T cells (%) ([1]; vaccinated donor V15, 6.860 weeks since 2nd dose, […], C1R-A2402 pre-pulsed with 1 μM peptide): 0% | IFNg-producing cells among CD8 T cells (%) ([1]; vaccinated donor V16, 8.860 weeks since 2nd dose, […], C1R-A2402 pre-pulsed with 1 μM peptide): 1.178% | IFNg-producing cells among CD8 T cells (%) ([1]; vaccinated donor V17, 4.140 weeks since 2nd dose, […], C1R-A2402 pre-pulsed with 1 μM peptide): 0% | time after the second vaccine dose for which epitope-specific memory CD8+ T cells were detectable / maintained ([1]; vaccinated individuals (8 individuals)): > 30 weeks
